Results from patent US6281209A, “Fungicidal alkoximinomethyldioxazine derivatives” (Bayer Aktiengesellschaft, priority 1997, dated 2001).
Like-named read-outs stand apart in the source and are kept apart here.

What was measured:
Plasmopara viticola = experiment: Plasmopara Test (Grapevine)/Protective; format: in vivo; conditions: protective, 100 g/ha, evaluated 6 days after inoculation
Method: Plasmopara Test (Grapevine)/Protective Solvent: 47 parts by weight of acetone Emulsifier: 3 parts by weight of alkylaryl polyglycol ether To produce a suitable preparation of active compound, 1 part by weight of active compound is mixed with the stated amounts of solvent and emulsifier, and the concentrate is diluted with water to the desired concentration. To test for protective activity, the young plants are sprayed with the preparation of active compound at the stated application rate. After the spray coating has dried on, the plants are inoculated with an aqueous spore suspension of Plasmopara viticola and then remain in an incubation cabin at approximately 20° C. and 100% relative atmospheric humidity for 1 day. The plants are subsequently placed in a greenhouse at approximately 21° C. and approximately 90% relative atmospheric humidity for 5 days. The plants are then moistened and placed in an incubation cabin for 1 day.

Venturia inaequalis = experiment: Venturia Test (Apple)/Protective; format: in vivo; conditions: protective, 10 g/ha, evaluated 12 days after inoculation
Method: Venturia Test (Apple)/Protective Solvent: 47 parts by weight of acetone Emulsifier: 3 parts by weight of alkylaryl polyglycol ether To produce a suitable preparation of active compound, 1 part by weight of active compound is mixed with the stated amounts of solvent and emulsifier, and the concentrate is diluted with water to the desired concentration. To test for protective activity, young plants are sprayed with the preparation of active compound at the stated application rate. After the spray coating has dried on, the plants are inoculated with an aqueous conidia suspension of the causative organism of apple scab Venturia inaequalis and then remain in an incubation cabin at approximately 20° C. 100% relative atmospheric humidity for 1 day. The plants are then placed in the greenhouse at approximately 21° C. and a relative atmospheric humidity of approximately 90%.

Pyricularia oryzae = format: in vivo; conditions: rice, protective, 750 g/ha, contact time of one day, evaluated 4 days after inoculation
[1] = phys. data (logP), Table 1; format: physicochemical
Leptosphaeria nodorum = experiment: Leptosphaeria Nodorum Test (Wheat)/Protective; format: in vivo; conditions: protective, 25 g/ha, evaluated 10 days after inoculation
Method: Leptosphaeria Nodorum Test (Wheat)/Protective Solvent: 10 parts by weight of N-methyl-pyrrolidone Emulsifier: 0.6 parts by weight of alkylaryl polyglycol ether To produce a suitable preparation of active compound, 1 part by weight of active compound is mixed with the stated amounts of solvent and emulsifier, and the concentrate is diluted with water to the desired concentration. To test for protective activity, young plants are sprayed with the preparation of active compound at the stated application rate. After the spray coating has dried on, the plants are sprayed with a spore suspension of Leptosphaeria nodorum. The plants remain in an incubation cabin at 20° C. and 100% relative atmospheric humidity for 48 hours.

Row | SMILES | logP ([1]; read-out: logP) | other results
1 | CON=C(C1=NOCCO1)c1ccccc1OC(=O)C=C(C)c1cccc(C(F)(F)F)c1 [Example 1, 2-[(5,6-dihydro-[1,4,2]dioxazin-3-yl)-methoxyiminomethyl]-phenyl 3-(3-trifluoromethylphenyl)-but-2-enoate] |  | efficacy in comparison with the untreated control (Plasmopara viticola): up to 100%; efficacy in comparison with the untreated controls (Venturia inaequalis): up to 100%
2 | CON=C(C1=NOCCO1)c1ccccc1OC(=O)C=C(C)COc1cccc(C(F)(F)F)c1 [Example 3] |  | efficacy in comparison with the untreated control (Pyricularia oryzae): more than 80%
3 | CON=C(C1=NOCCO1)c1ccccc1OC(=O)C=C(C)c1cccc(Br)c1 [Example 4] | 3.72 | efficacy in comparison with the untreated control (Plasmopara viticola): up to 100%; efficacy in comparison with the untreated controls (Venturia inaequalis): up to 100%; efficacy in comparison with the untreated control (Leptosphaeria nodorum): 70%
4 | CON=C(C1=NOCCO1)c1ccccc1OC(=O)C=C(C)c1cccc(OC)c1 [Example 5] | 3.22 | efficacy in comparison with the untreated control (Plasmopara viticola): up to 100%; efficacy in comparison with the untreated controls (Venturia inaequalis): up to 100%
5 | CON=C(C1=NOCCO1)c1ccccc1OC(=O)C=C(C)c1ccccc1 [Example 6] | 3.22 | efficacy in comparison with the untreated control (Plasmopara viticola): up to 100%; efficacy in comparison with the untreated controls (Venturia inaequalis): up to 100%
6 | CON=C(C1=NOCCO1)c1ccccc1OC(=O)C=C(C)c1ccc(C(F)(F)F)cc1 [Example 7] | 3.81 | efficacy in comparison with the untreated controls (Venturia inaequalis): up to 100%; efficacy in comparison with the untreated control (Pyricularia oryzae): more than 80%
7 | CON=C(C1=NOCCO1)c1ccccc1OC(=O)C=C(C)c1ccc(C)cc1 [Example 8] | 3.58 | efficacy in comparison with the untreated control (Plasmopara viticola): up to 100%; efficacy in comparison with the untreated controls (Venturia inaequalis): up to 100%; efficacy in comparison with the untreated control (Pyricularia oryzae): more than 80%
8 | CCc1cccc(C(C)=CC(=O)Oc2ccccc2C(=NOC)C2=NOCCO2)c1 [Example 9] | 3.91 | efficacy in comparison with the untreated control (Plasmopara viticola): up to 100%; efficacy in comparison with the untreated controls (Venturia inaequalis): up to 100%; efficacy in comparison with the untreated control (Pyricularia oryzae): more than 80%
9 | CON=C(C1=NOCCO1)c1ccccc1OC(=O)C=C(C)c1ccc(Br)cc1 [Example 10] | 3.78 | 
10 | CCOc1ccc(C(C)=CC(=O)Oc2ccccc2C(=NOC)C2=NOCCO2)cc1 [Example 12] | 3.57 | 
11 | CON=C(C1=NOCCO1)c1ccccc1OC(=O)C=C(C)c1ccc(C)cc1 [Example 13] |  | logP [1]: 4.06
12 | CON=C(C1=NOCCO1)c1ccccc1OC(=O)C=C(C)c1cc(Cl)ccc1Cl [Example 14] | 3.93 | 
13 | CON=C(C1=NOCCO1)c1ccccc1OC(=O)C=C(C)c1cccc(C)c1 [Example 17] | 3.58 | 
14 | CON=C(C1=NOCCO1)c1ccccc1OC(=O)C=C(C)c1cccc(Cl)c1 [Example 19] | 3.64 | 
15 | CON=C(C1=NOCCO1)c1ccccc1OC(=O)C=C(C)c1ccc(F)cc1 [Example 20] | 3.28 | 
16 | CON=C(C1=NOCCO1)c1ccccc1OC(=O)C=C(C)c1ccc(OC)cc1 [Example 21] | 3.19 | 
17 | CON=C(C1=NOCC(C)O1)c1ccccc1OC(=O)C=C(C)c1ccc(C(F)(F)F)cc1 (stereo not drawn) [Example 22] | 4.02 | 
18 | CON=C(C1=NOCC(C)(C)O1)c1ccccc1OC(=O)C=C(C)c1ccc(C(F)(F)F)cc1 [Example 23] | 4.23 | 
19 | CON=C(C1=NOCCO1)c1ccccc1OC(=O)C=C(C)c1ccccc1OC(C)C [Example 24] | 3.87 | 
20 | CCOc1ccccc1C(C)=CC(=O)Oc1ccccc1C(=NOC)C1=NOCCO1 [Example 25] | 3.63 | 
21 | CCCOc1ccccc1C(C)=CC(=O)Oc1ccccc1C(=NOC)C1=NOCCO1 [Example 26] | 3.98 | 
22 | CON=C(C1=NOCCO1)c1ccccc1OC(=O)C=C(C)c1ccccc1F [Example 29] | 3.25 | 
23 | CON=C(C1=NOCCO1)c1cc(C)ccc1OC(=O)C=C(C)c1cccc(Cl)c1 [Example 32] | 3.9 | 
24 | CON=C(C1=NOCCO1)c1ccccc1OC(=O)C=C(C)c1ccccc1OC [Example 42] | 3.28 | 
25 | CON=C(C1=NOCCO1)c1ccccc1OC(=O)C=C(C)c1ccccc1C(F)(F)F [Example 43] | 3.58 | 
26 | CON=C(C1=NOCCO1)c1ccccc1OC(=O)C=C(C)c1cc(C)ccc1C [Example 44] | 3.85 | 
27 | CON=C(C1=NOCCO1)c1ccccc1OC(=O)C=C(C)c1ccccc1Br [Example 45] | 3.58 | 
28 | CON=C(C1=NOCCO1)c1ccccc1OC(=O)C=C(C)c1ccc(Cl)nc1 [Example 46] | 2.75 | 
29 | CON=C(C1=NOCCO1)c1ccccc1OC(=O)C=C(C)c1ccccc1C [Example 47] | 3.48 | 
